In patent US20250296909A1, “NOVEL BENZENE DERIVATIVE AND IMMUNOSUPPRESSION-RELATED USE THEREOF” (PROVIBIO CO., LTD., priority 2021, published 2025):

What was measured:
[1] = tested on: T lymphocyte cell line Jurkat E6-1; test: Cytotoxicity experiment (CCK-8, relative cell survival); assay type: cell-based; conditions: 24 hours, untreated cells = 100%
How it was run: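 Relative survival versus untreated cells (set to 100%) from CCK-8 absorbance at 450 nm after 2 h dye incubation. Cells had been treated with graded compound concentrations for 24 h at 37 °C in 5% CO2, cultured in RPMI-1640 plus 10% FBS.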

[2] = tested on: psoriasis mouse animal model; test: Psoriasis mouse animal model (imiquimod-induced); assay type: in vivo, BALB/c mice; conditions: 40 mg/kg intraperitoneally twice a day
From the text: To confirm the therapeutic effect of compounds according to the present invention on psoriasis, a psoriasis animal model was established to evaluate the alleviation of skin lesions and changes in immune cell profiles by administering Compound 69 or Compound 83 via injection.
To establish a psoriasis mouse animal model, BALB/c mice (7 weeks old, 20 g, female) were purchased from Hana Biotech Co. and allowed to acclimate to the housing environment for one week. Afterward, the fur on the dorsal area of the mice was initially shaved using a shaver, followed by complete removal with depilatory cream (Nicrin Cream, comprising thioglycolic acid 80%, manufactured by ILDONG Pharmaceutical CO., LTD). The mice were then housed for 24 hours to confirm any wounds on their backs.
Subsequently, in order to verify the preventive and therapeutic effects of compounds according to the present invention on psoriasis, five experimental groups were established as shown in FIG. 7 and Table 5. From the second to the fifth group, Aldara® cream was applied once daily for two weeks (14 days, total of 14 applications) at a dose of 80 mg (imiquimod, 4 mg) per mouse to induce psoriasis. Furthermore, to compare the preventive and therapeutic effects of compounds according to the present invention (Compound 69 and Compound 83) on psoriasis, 40 mg/kg of the compound per mouse was dissolved in DMSO corresponding to 10% of the dosing volume, and then diluted in a mixture of Cremophor EL-PEG 400-distilled water to achieve a final ratio of DMSO: Cremophor EL:PEG 400:distilled water to 1:1:4:4 (v/v/v/v). Subsequently, the respective injections were intraperitoneally administered at a dose of 100 μL per mouse, twice a day with a 12-hour interval. For the Vehicle control group, injections excluding the drug but comprising the vehicle solution (DMSO: Cremophor EL:PEG 400:distilled water=1:1:4:4 (v/v/v/v)) were administered at a dose of 100 μL per mouse, twice a day with a 12-hour interval.
To assess the impact of each compound on immune cells in vivo, the spleens of mice treated with each compound were harvested, and cells were extracted, and cells were suspended in MACS buffer (2 mM EDTA, 0.5% FBS, 137 mM NaCl, 2.7 mM KCl, 10 mM Na2HPO4, 1.8 mM KH2PO4, Miltenyi Biotech.). For flow cytometry analysis, each mouse's splenocytes were aliquoted at 5×10^5 cells per FACS tube (5 mL round tube, Falcon). To prevent non-specific antibody binding, each tube was treated with 1 μg/mL of anti-mouse CD16/CD32 (InVivoMAb) for 30 minutes, followed by centrifugation at 13,000 rpm for 5 minutes, and resuspended in 100 μL of MACS buffer. Subsequent experiments were conducted depending on the type of immune cells to be examined.
(§1) For B cells, each FACS tube was stained with 1 μg/mL of FITC-conjugated anti-B220 antibody (eBioscience™) at 4° C. for 30 minutes, followed by washing with 2 mL of MACS buffer. Subsequently, each tube was centrifuged at 15,000 rpm for 5 minutes, the supernatant was removed, and the precipitated cells were fixed using 200 μL of 4% paraformaldehyde solution.
For T cells, each FACS tube was stained with 1 μg/mL of PerCP-Cy5.5-conjugated anti-CD3 antibody (Biolegend), FITC-conjugated anti-CD8 antibody (eBioscience™) and Cy7-conjugated anti-CD4 antibody (eBioscience™) at 4° C. for 30 minutes, followed by washing with 2 mL of MACS buffer. Subsequently, each tube was centrifuged at 15,000 rpm for 5 minutes, the supernatant was removed, and the precipitated cells were fixed using 200 μL of 4% paraformaldehyde solution.
as §1, with “macrophages,” for “B cells,”, “anti-CD11b” for “anti-B220”

[3] = flow cytometry, versus psoriasis groups, FIG. 10

SMILES: CCCCCCCCCCCCNC(=O)c1cccnc1N [Compound 69]
- Relative cell survival rate (%) ([1]; 10 μM): 95%
- Relative cell survival rate (%) ([1]; 20 μM): 94%
- Relative cell survival rate (%) ([1]; 30 μM): 88%
- Relative cell survival rate (%) ([1]; 50 μM): 84%
- skin lesions (erythema, thickness, exfoliation of back skin) ([2]; 14 days, FIG. 8): either minimally present or hardly observed
- hyperkeratosis, parakeratosis, irregular acanthosis, infiltration of inflammatory cells (H&E staining) ([2]; 14 days, FIG. 9): either minimally present or hardly observed
- proportion of B cells in the spleen [2, 3]: increase
- proportion of CD11b granulocytes in the spleen [2, 3]: decreased
- proportion of T cells in the spleen [2, 3]: increase
